# Columns and labels:
# Staphylococcus aureus = test: MIC and Synergy Index (Kull) of two-component compositions; assay type: cell-based; conditions: Staphylococcus aureus, butyl levulinate alone, or its concentration in the mixture with Sodium benzoate; read-out: MIC (ppm) to inhibit growth: Butyl levulinate
# Method: (§1) A wide range of concentrations were tested against Pseudomonas aeruginosa, Staphylococcus aureus, Escherichia coli, and Candda albicans.
# (§2) The lowest concentration of each mixture or single compound which prevents an observable level of growth was determined to be the minimum inhibitory concentration (MIC) value.
# (§3) Serial dilutions of each mixture or single compound were prepared. Micro-organisms were inoculated into media: Nutrient Broth (bacteria) or Malt Extract Broth (yeast). The final concentrations of micro-organisms in media was approximately 10^5-6 CFU/ml. The inoculated media was introduced to each of the serial dilutions at a 1:1 ratio, and incubated at 30±1° C. for 24-48 hours.
# (§4) The MICs for each mixture was compared with the MIC of each single compound alone.
# (§5) Synergy was determined using the Kull equation (F. C. Kull et. al., “Mixtures of Quaternary Ammonium Compounds and Long-chain Fatty Acids as Antifungal Agents”, Appl Microbiol. 1961 November; 9(6): 538-541), which calculates a Synergy Index (SI) according the following equation:
# (§6) [formula] • wherein • QA=concentration of compound A in ppm, acting alone produced an end point, • Qa=concentration of compound A in ppm, in the mixture, which produced an end point, • QB=concentration of compound B in ppm, acting alone produced an end point, and • Qb=concentration of compound B in ppm, in the mixture, which produced an end point;
# (§7) In this study the end point is measured by the MIC.
# Escherichia coli = test: as above; assay type: cell-based
# Method: as §1, §2, §3, §4, §5, §6, §7
# Pseudomonas aeruginosa = test: as above; assay type: cell-based
# Method: as §1, §2, §3, §4, §5, §6, §7
# [1] = tested on: Aspergillus brasiliensis ATCC 16404; test: Preservation efficacy test in sterile distilled water, drop plate; assay type: cell-based; conditions: 7 days
# Method: In the following example, the following test organisms were used: • Pseudomonas aeruginosa ATCC 9027 • Aspergillus brasiliensis ATCC 16404 [table] Mould strain spores were harvested (sterile distilled water+0.05% polysorbate 80) and treated to remove fungal hyphae. Mould strain spores were prepared in diluent (sterile distilled water) to obtain a final concentration of […]. [table] […] Each sample was inoculated at t=0 with a known concentration of micro-organism. Each inoculated sample was then mixed until a homogenous mixture was obtained. […] The solution was left for 15 minutes. Subsequent dilutions were prepared by serial dilution of 0.1 ml into 0.9 ml of neutralising broth. Bacteria were serially diluted to 10^−4, Fungi were serially diluted to 10^−3. Each serial dilution was thoroughly mixed and 25 μl drops were aliquoted onto the surface of pre-prepared agar plates. Plates were prepared in sextupicate for each sample dilution. The agar plates were allowed to dry, then inverted and incubated under conditions appropriate for the test microorganisms. CFU/ml was calculated taking into account dilution factors. […] The lower and upper limits for drop plating were only employed on the highest and lowest dilution factor plates.
# C. albicans = test: as above; assay type: cell-based, Candida albicans; conditions: 7 days, pH 7, Potassium Sorbate 0 ppm
# Method: Yeast strains were harvested and prepared in diluent (sterile distilled water) to obtain a final concentration of 1.0×10^5 to 1.0×10^6 cfu/ml.
# Preservation efficacy testing started at Day 0 (t=0). Each sample was inoculated at t=0 with a known concentration of micro-organism. Each inoculated sample was then mixed until a homogenous mixture was obtained. Inoculated samples were stored in the dark at 22.5±2.5° C. throughout the test period.
# At the specified contact time of 7 days (t=7), test samples were deactivated by adding a 0.1 ml aliquot of the test sample to 0.9 ml of an appropriate neutralising broth. The solution was left for 15 minutes. Subsequent dilutions were prepared by serial dilution of 0.1 ml into 0.9 ml of neutralising broth. Bacteria were serially diluted to 10^−4, Fungi were serially diluted to 10^−3.
# Each serial dilution was thoroughly mixed and 25 μl drops were aliquoted onto the surface of pre-prepared agar plates. Plates were prepared in sextupicate for each sample dilution.
# The agar plates were allowed to dry, then inverted and incubated under conditions appropriate for the test microorganisms.
# CFU/ml was calculated taking into account dilution factors. Colonies from the incubated plates were enumerated using the lower count limit of <10 CFU/ml and the upper count limit of >330 CFU/ml.
# The lower and upper limits for drop plating were only employed on the highest and lowest dilution factor plates.
# The test organisms were prepared and the method was performed according to the protocol of Example 1.
# Candida albicans = test: MIC and Synergy Index (Kull) of two-component compositions; assay type: cell-based
# Method: as §1, §2, §3, §4, §7
# [2] = butyl levulinate alone, or its concentration in the mixture with DHA
# [3] = butyl levulinate alone, or its concentration in the mixture with Sodium pyrithione
structure (smiles),measurement,setting,value
"CCCCOC(=O)CCC(C)=O [Butyl Levulinate, butyl levulinate]",MIC,Staphylococcus aureus,25000 µg/mL
same,MIC,"Escherichia coli; Escherichia coli, butyl levulinate alone, or its concentration in the mixture with Sodium benzoate, read-out: MIC (ppm) to inhibit growth: Butyl levulinate",3120 µg/mL
same,MIC (ppm) to inhibit growth: Butyl levulinate,Escherichia coli; [2],3125 ppm
same,MIC,"Pseudomonas aeruginosa; Pseudomonas aeruginosa, butyl levulinate alone, or its concentration in the mixture with Lactic Acid, read-out: MIC (ppm) to inhibit growth: Butyl levulinate",6250 µg/mL
same,MIC (ppm) to inhibit growth: Butyl levulinate,"Pseudomonas aeruginosa; butyl levulinate alone, or its concentration in the mixture with MGDA",6250 ppm
same,MIC (ppm) to inhibit growth: Butyl levulinate,Pseudomonas aeruginosa; [3],6250 ppm
same,Log reduction,"[1]; pH 7, Butyl Levulinate 500 ppm, IPBC 0 ppm",0.61
same,Log reduction,"[1]; pH 7, Butyl Levulinate 500 ppm, Potassium Sorbate 0 ppm",0.10
same,Log reduction,"[1]; pH 7, Butyl Levulinate 500 ppm, Sodium Benzoate 0 ppm",1.90
same,Log reduction,"[1]; pH 7, Butyl Levulinate 1000 ppm, IPBC 0 ppm",0.60
same,Log reduction,"[1]; pH 7, Butyl Levulinate 1000 ppm, Potassium Sorbate 0 ppm",0.10
same,Log reduction,"[1]; pH 7, Butyl Levulinate 1000 ppm, Sodium Benzoate 0 ppm",1.82
same,Log reduction,"[1]; pH 7, Butyl Levulinate 1500 ppm, IPBC 0 ppm",0.74
same,Log reduction,"[1]; pH 7, Butyl Levulinate 1500 ppm, Potassium Sorbate 0 ppm",0.31
same,Log reduction,"[1]; pH 7, Butyl Levulinate 1500 ppm, Sodium Benzoate 0 ppm",1.85
same,Log reduction,"[1]; pH 7, Butyl Levulinate 2000 ppm, IPBC 0 ppm",0.70
same,Log reduction,"[1]; pH 7, Butyl Levulinate 2000 ppm, Potassium Sorbate 0 ppm",−0.01
same,Log reduction,"[1]; pH 7, Butyl Levulinate 2000 ppm, Sodium Benzoate 0 ppm",2.01
same,Log reduction,"[1]; pH 7, Butyl Levulinate 2500 ppm, IPBC 0 ppm",0.72
same,Log reduction,"[1]; pH 7, Butyl Levulinate 2500 ppm, Potassium Sorbate 0 ppm",0.18
same,Log reduction,"[1]; pH 7, Butyl Levulinate 2500 ppm, Sodium Benzoate 0 ppm",1.80
same,Log reduction,"[1]; pH 8, Butyl Levulinate 500 ppm, Sodium Benzoate 0 ppm",0.64
same,Log reduction,"[1]; pH 8, Butyl Levulinate 1000 ppm, Sodium Benzoate 0 ppm",0.36
same,Log reduction,"[1]; pH 8, Butyl Levulinate 1500 ppm, Sodium Benzoate 0 ppm",0.36
same,Log reduction,"[1]; pH 8, Butyl Levulinate 2000 ppm, Sodium Benzoate 0 ppm",0.38
same,Log reduction,"[1]; pH 8, Butyl Levulinate 2500 ppm, Sodium Benzoate 0 ppm",0.33
same,Log reduction,C. albicans; Butyl Levulinate 500 ppm,0.11
same,Log reduction,C. albicans; Butyl Levulinate 1000 ppm,0.22
same,Log reduction,C. albicans; Butyl Levulinate 1500 ppm,0.11
same,Log reduction,C. albicans; Butyl Levulinate 2000 ppm,−0.11
same,Log reduction,C. albicans; Butyl Levulinate 2500 ppm,0.18
same,MIC,"Candida albicans; Candida albicans, butyl levulinate alone, or its concentration in the mixture with Sodium benzoate, read-out: MIC (ppm) to inhibit growth: Butyl levulinate",6250 µg/mL
same,MIC (ppm) to inhibit growth: Butyl levulinate,"Candida albicans; butyl levulinate alone, or its concentration in the mixture with BIT",6250 ppm
same,MIC (ppm) to inhibit growth: Butyl levulinate,Candida albicans; [2],6250 ppm
same,MIC (ppm) to inhibit growth: Butyl levulinate,"Candida albicans; butyl levulinate alone, or its concentration in the mixture with HPNO",6250 ppm
same,MIC (ppm) to inhibit growth: Butyl levulinate,"Candida albicans; butyl levulinate alone, or its concentration in the mixture with PHMB",6250 ppm
same,MIC (ppm) to inhibit growth: Butyl levulinate,"Candida albicans; butyl levulinate alone, or its concentration in the mixture with Potassium Sorbate",6250 ppm
same,MIC (ppm) to inhibit growth: Butyl levulinate,Candida albicans; [3],6250 ppm

# — patent US20250040543A1, “Preservative Composition” (ARXADA AG, priority 2021, published 2025)
